Values of other authors, collected in US20130121964A1, “Pharmacogenomic and Response-Guided Treatment of Infectious Disease Using Yeast-Based Immunotherapy” (GLOBEIMMUNE, INC., priority 2010, published 2013).

What was measured:
[1] = in vivo

NC(=O)c1ncn([C@@H]2O[C@H](CO)[C@@H](O)[C@H]2O)n1 [Ribavirin, 1-(beta)-D-ribofuranosyl-1H-1,2,4-triazole-3-carboxamide]
solubility in anhydrous alcohol (anhydrous alcohol): slightly soluble | solubility in water (water): freely soluble | patients with hemolytic anemia [1]: 20-30%
